ChEMBL document CHEMBL5046258, “Anti-inflammatory Dimeric Benzophenones from an Endophytic Pleosporales Species” (J Nat Prod, 2022)

System: RAW264.7
Experiment: Antiinflammatory activity in mouse RAW 264.7 cells assessed as inhibition of LPS-induced nitric oxide production measured after 24 hrs by Griess reagent assay
Type: functional, cell-based
Details: RAW264.7, 24 h

IC50 [µM] | SMILES
46.1 | Cc1cc2c(C)cc(O)cc2c(=O)o1
35.1 | COc1cc(O)c(C(=O)c2c(C)cc(O)cc2OC)c(O)c1
43.3 | COc1cc(C)c(C(=O)c2c(O)cc(OC)cc2O[C@@H]2O[C@H](CO)[C@@H](O)[C@H](O)[C@H]2O)c(OC)c1
39 | COc1cc(C)c(C(=O)c2c(O)cc(O)cc2O)c(OC)c1
22.4 | COc1cc(O)c2c(=O)c3c(C)c(O)c(OC)cc3oc2c1
18.1 | COc1cc(C)c(C(=O)c2c(O)cc(OC)c(Cc3c(O)cc(O)cc3CC(C)=O)c2O)c(OC)c1
15.6 | COc1cc(C)c(C(=O)c2c(O)cc(OC)c(C(CCC(=O)O)c3c(OC)cc(O)c(C(=O)c4c(C)cc(OC)cc4OC)c3O)c2O)c(OC)c1
23.3 | COc1cc(C)c(C(=O)c2c(O)cc(OC)cc2O[C@@H]2O[C@H](CO)[C@@H](O)[C@H](O)[C@H]2O)c(O)c1
45.2 | COc1cc(O)c(C(=O)c2c(C)cc(OC)cc2OC)c(O)c1
8.8 | COc1cc(C)c(C(=O)c2c(O)cc(OC)c(Cc3c(OC)cc(O)c(C(=O)c4c(C)cc(OC)cc4OC)c3O)c2O)c(OC)c1
49.7 | COc1cc(O)c(C(=O)Oc2c(C)cc(O)cc2OC)c(O)c1
39.1 | COc1cc(O)c2c(c1)C1=CC(=O)C(O)=CC1(C)OC2=O (stereo unspecified) [DEHYDROALTENUSIN]
22.2 | C[C@@H]1C[C@H]2[C@@H]3CCC4=CC(=O)C=C[C@]4(C)[C@@]3(F)[C@@H](O)C[C@]2(C)[C@@]1(O)C(=O)CO [DEXAMETHASONE]
19.5 | COc1cc(C)c2c(=O)c3c(O)cc(OC)cc3oc2c1 [LICHEXANTHONE]
35.2 | Cc1cc(O)cc2oc3cc(O)cc(O)c3c(=O)c12 [NORLICHEXANTHONE]

SMILES | IC50 [µM]
Cc1cc(O)cc2oc(=O)c3c(O)cc(O)cc3c12 [ALTERNARIOL] | 51.4
